Experimental data published in the supplement of paper PMC11061612.

Experiments:
Test in all cases: combination Emax (second highest fraction inhibited in the dose matrix, 72 h); higher = more inhibition; extreme values may be limits of the assay
A2058 (Melanoma) = tested on: A2058 (Melanoma)
In short: (§1)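 After 24 hours at 37°C and 5% CO2 in 1536-well plates, cells in DMEM/F12 or RPMI plus 10% FBS received two-drug dose matrices for 72 hours. Viability came from CellTiter-Glo 2.0 luminescence and was scaled as inhibition, anchored at 0 by vehicle wells and at 1 by blank wells. Combination Emax is taken as the second-highest inhibition in the matrix, and Bliss excess as the observed combination effect less EA + EB − EA·EB, with EA and EB the single-agent effects.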

[1] = tested on: REH (B-Lymphoblastic Leukemia)
In short: as §1

WM793B (Melanoma) = tested on: WM793B (Melanoma)
In short: as §1

[2] = tested on: RERF-LC-Sq1 (Squamous Cell Lung Carcinoma)
In short: as §1

[3] = tested on: FADU (Head and Neck Carcinoma)
In short: as §1

[4] = tested on: MKN45 (Gastric Carcinoma)
In short: as §1

[5] = tested on: NCI-H2342 (Lung Adenocarcinoma)
In short: as §1

[6] = tested on: HCT-15 (Colorectal Carcinoma)
In short: as §1

[7] = tested on: HSC-39 (Gastric Carcinoma)
In short: as §1

[8] = tested on: SU-DHL-10 (B-Cell Non-Hodgkin's Lymphoma)
In short: as §1

[9] = tested on: SHP-77 (Small Cell Lung Carcinoma)
In short: as §1

[10] = tested on: OAW-42 (Ovarian Carcinoma)
In short: as §1

[11] = tested on: RCM-1 (Colorectal Carcinoma)
In short: as §1

[12] = tested on: NCI-H23 (Lung Adenocarcinoma)
In short: as §1

[13] = tested on: RKN (Other Solid Carcinomas)
In short: as §1

[14] = tested on: LB996-RCC (Kidney Carcinoma)
In short: as §1

[15] = tested on: COLO-680N (Esophageal Squamous Cell Carcinoma)
In short: as §1

[16] = tested on: PSN1 (Pancreatic Carcinoma)
In short: as §1

WM278 (Melanoma) = tested on: WM278 (Melanoma)
In short: as §1

[17] = tested on: RERF-GC-1B (Gastric Carcinoma)
In short: as §1

| SMILES | combination Emax (A2058 (Melanoma)) | combination Emax [1] | combination Emax (WM793B (Melanoma)) | combination Emax [2] | combination Emax [3] | combination Emax [4] | combination Emax [5] | combination Emax [6] | combination Emax [7] | combination Emax [8] | combination Emax [9] | combination Emax [10] | combination Emax [11] | combination Emax [12] | combination Emax [13] | combination Emax [14] | combination Emax [15] | combination Emax [16] | combination Emax (WM278 (Melanoma)) | combination Emax [17] |
| --- | --- | --- | --- | --- | --- | --- | --- | --- | --- | --- | --- | --- | --- | --- | --- | --- | --- | --- | --- | --- |
| CN(C)CCCOc1ccc(-c2ccc3ncc4c(c3c2)n(C2CCOCC2)c(=O)n4C)cn1 [AZD0156] + O=C(c1cc(Cc2n[nH]c(=O)c3ccccc23)ccc1F)N1CCN(C(=O)C2CC2)CC1 [Olaparib] (first compound max 3 µM, partner max 3 µM) | 0.37 | 0.457 | 0.197 | 0.418 | 0.258 | 0.356 | 0.0678 | 0.378 | 0.413 | 0.342 | 0.209 | 0.282 | 0.287 | 0.117 | 0.214 | 0.38 | 0.16 | 0.228 | 0.209 | 0.317 |
| C=CCn1c(=O)c2cnc(Nc3ccc(N4CCN(C)CC4)cc3)nc2n1-c1cccc(C(C)(C)O)n1 [AZD1775] + C1CN(CCC1(C(=O)N[C@@H](CCO)C2=CC=C(C=C2)Cl)N)C3=NC=NC4=C3C=CN4 [Capivasertib] (first compound max 3 µM, partner max 3 µM) | 0.886 | 0.93 | 0.606 | 0.844 | 0.644 | 0.741 | 0.282 | 0.896 | 0.958 | 1 | 0.885 | 0.467 | 0.628 | 0.908 | 0.762 | 0.783 | 0.306 | 0.763 | 0.389 | – |
| CN(CCO)CC[C@H](CSc1ccccc1)Nc1ccc(S(=O)(=O)NC(=O)c2ccc(N3CCC([C@@H](O)c4ccccc4-c4ccc(Cl)cc4)CC3)cc2)cc1S(=O)(=O)C(F)(F)F [AZD4320] + C1CN(CCC1(C(=O)N[C@@H](CCO)C2=CC=C(C=C2)Cl)N)C3=NC=NC4=C3C=CN4 [Capivasertib] (first compound max 1 µM, 7x7, partner max 3 µM) | 0.191 | 1 | 0.281 | 0.667 | 0.116 | 0.456 | 0.3 | 0.174 | 0.328 | 0.97 | – | 0.282 | 0.343 | 0.093 | 0.154 | 0.494 | 0.0496 | 0.276 | 0.599 | 0.496 |
| CN(CCO)CC[C@H](CSc1ccccc1)Nc1ccc(S(=O)(=O)NC(=O)c2ccc(N3CCC([C@@H](O)c4ccccc4-c4ccc(Cl)cc4)CC3)cc2)cc1S(=O)(=O)C(F)(F)F [AZD4320] + C=CCn1c(=O)c2cnc(Nc3ccc(N4CCN(C)CC4)cc3)nc2n1-c1cccc(C(C)(C)O)n1 [AZD1775] (first compound max 1 µM, partner max 1 µM) | 0.355 | 1 | 0.622 | 0.683 | 0.453 | 0.826 | 0.38 | 0.456 | 0.958 | 0.992 | 0.65 | 0.496 | 0.717 | 0.832 | 0.315 | 0.978 | 0.223 | 0.592 | 0.765 | 0.962 |
| CN(CCO)CC[C@H](CSc1ccccc1)Nc1ccc(S(=O)(=O)NC(=O)c2ccc(N3CCC([C@@H](O)c4ccccc4-c4ccc(Cl)cc4)CC3)cc2)cc1S(=O)(=O)C(F)(F)F [AZD4320] + CCN(CCO)CCCOc1ccc2c(Nc3cc(CC(=O)Nc4cccc(F)c4)[nH]n3)ncnc2c1 [AZD2811] (first compound max 1 µM, 7x7, partner max 1 µM) | 0.47 | 1 | 0.246 | 0.275 | 0.245 | 0.316 | 0.384 | 0.135 | 0.966 | 0.759 | 0.65 | 0.14 | 0.545 | 0.216 | – | 0.485 | 0.137 | 0.349 | 0.635 | 0.568 |
| CN(CCO)CC[C@H](CSc1ccccc1)Nc1ccc(S(=O)(=O)NC(=O)c2ccc(N3CCC([C@@H](O)c4ccccc4-c4ccc(Cl)cc4)CC3)cc2)cc1S(=O)(=O)C(F)(F)F [AZD4320] + CN(C)CCCOc1ccc(-c2ccc3ncc4c(c3c2)n(C2CCOCC2)c(=O)n4C)cn1 [AZD0156] (first compound max 1 µM, 7x7, partner max 1 µM) | 0.103 | 1 | 0.251 | 0.194 | 0.124 | 0.316 | 0.27 | 0.111 | 0.279 | 0.144 | 0.585 | 0.261 | 0.435 | 0.104 | 0.102 | 0.227 | 0.137 | 0.315 | 0.568 | 0.379 |
| CN(CCO)CC[C@H](CSc1ccccc1)Nc1ccc(S(=O)(=O)NC(=O)c2ccc(N3CCC([C@@H](O)c4ccccc4-c4ccc(Cl)cc4)CC3)cc2)cc1S(=O)(=O)C(F)(F)F [AZD4320] + C[C@@H]1COCCN1C2=NC(=NC(=C2)C3(CC3)[S@](=N)(=O)C)C4=C5C=CNC5=NC=C4 [AZD6738] (first compound max 1 µM, 7x7, partner max 10 µM) | 0.782 | 1 | 0.844 | 0.791 | 0.583 | 0.8 | 0.377 | 0.756 | 1 | 0.899 | 0.662 | 0.748 | 0.862 | 0.85 | 0.242 | 0.837 | 0.346 | 0.453 | 0.789 | 0.621 |
| COc1nnc2ccc(N3CCC(c4ccc(OCCN5CCN(C)C(=O)[C@H]5C)cc4)CC3)nn12 [AZD5153] + CN(CC[C@H](CSC1=CC=CC=C1)NC2=C(C=C(C=C2)S(=O)(=O)NC(=O)C3=CC=C(C=C3)N4CCC(CC4)[C@H](C5=CC=CC=C5C6=CC=C(C=C6)Cl)O)S(=O)(=O)C(F)(F)F)CCO [AZD4320] (first compound max 1 µM, 7x7, partner max 1 µM) | 0.577 | – | 0.508 | 0.706 | 0.45 | – | – | 0.81 | – | 1 | – | 0.41 | – | 0.766 | – | 0.539 | – | – | 0.829 | 0.813 |
| CS(=O)(=O)CCNCc1ccc(-c2ccc3ncnc(Nc4ccc(OCc5cccc(F)c5)c(Cl)c4)c3c2)o1 [Lapatinib] + NC1(c2ccc(-c3nc4ccn5c(=O)[nH]nc5c4cc3-c3ccccc3)cc2)CCC1 [MK-2206] (first compound max 10 µM, 7x7, partner max 10 µM) | 0.982 | 0.957 | – | – | – | 0.617 | 0.196 | – | 0.933 | – | 0.633 | 0.819 | 0.514 | 0.338 | 0.346 | – | 0.467 | 0.562 | – | 0.943 |
| COc1cc2c(cc1OCCCCCOc1cc3c(cc1OC)C(=O)N1C=C(C)C[C@H]1C=N3)N=C[C@@H]1CC(C)=CN1C2=O [SG3199] + O=C(c1cc(Cc2n[nH]c(=O)c3ccccc23)ccc1F)N1CCN(C(=O)C2CC2)CC1 [Olaparib] (first compound max 0.001 µM, 7x7, partner max 10 µM) | 0.141 | 0.197 | 0.194 | 0.129 | 0.115 | 0.0741 | 0.0836 | 0.264 | 0.185 | 0.23 | 0.223 | – | 0.0628 | 0.253 | 0.0618 | 0.282 | 0.0893 | 0.127 | 0.0771 | 0.245 |
| CCc1c2c(nc3ccc(O)cc13)-c1cc3c(c(=O)n1C2)COC(=O)[C@]3(O)CC [SN-38] + CN(C)CCCOc1ccc(-c2ccc3ncc4c(c3c2)n(C2CCOCC2)c(=O)n4C)cn1 [AZD0156] (first compound max 0.3 µM, 7x7, partner max 1 µM) | 0.401 | 1 | 0.85 | 0.743 | 1 | 0.815 | 0.225 | 0.943 | 0.964 | 0.986 | 0.48 | – | 0.86 | 0.554 | 0.631 | 0.898 | 0.412 | 0.705 | 0.635 | 0.788 |
| C[C@@H](c1ccc2nccn2c1)n1nnc2ncc(-c3cnn(C)c3)nc21 [Savolitinib] + CN(CC[C@H](CSC1=CC=CC=C1)NC2=C(C=C(C=C2)S(=O)(=O)NC(=O)C3=CC=C(C=C3)N4CCC(CC4)[C@H](C5=CC=CC=C5C6=CC=C(C=C6)Cl)O)S(=O)(=O)C(F)(F)F)CCO [AZD4320] (first compound max 1 µM, 7x7, partner max 1 µM) | 0.192 | – | 0.137 | 0.238 | 0.221 | – | – | 0.132 | – | 0.0854 | – | 0.275 | – | 0.316 | – | 0.19 | – | – | 0.55 | 0.367 |
